Laboratory results from patent US8617528B2, “Compositions and methods for stabilizing ingredients using 2,4-pentanedione compounds” (Sytheon Ltd., priority 2010, dated 2013).

Legend:
[1] = Hydrolytic stability of HSS in water at pH 7, 8, 9 (GC purity of recovered solid); assay type: physicochemical
Procedure: A series of hydrolytic stability tests were conducted on the compound of Example 1, HSS, as follows
pH7: 2.5 g of samples of HSS were placed in 100 ml round bottom flasks and 50 ml of double distilled water (pH 7) added to each. […] Thereafter each sample was filtered and the solids dried.
pH 8: 2.5 g of samples of HSS were placed in 100 ml round bottom flasks and 50 ml of double distilled water which had been adjusted to pH 8 using 0.01N NaOH solution added to each. […] Thereafter each sample was filtered and the solids dried.
pH 9: 2.5 g of samples of HSS were placed in 100 ml round bottom flasks and 50 ml of double distilled water which had been adjusted to pH 9 using 0.1N NaOH solution added to each. […] Thereafter each sample was filtered and the solids dried.
Each dried sample was analyzed by gas chromatography using an HP-5, 15 m, 0.53 mm id, capillary column with following set-up and test parameters: • Injection temperature: 250° C. • Oven temp: 50° C. (2 min), 10° C. to 260° C. (20 min) • Detector: FID • Detector temp: 260° C. • Carrier gas: Nitrogen • Column flow: 3.0 ml/min • Split ratio: 5:1 • Injection Volume: 1 micro liter • Sample concentration: 100 mg/ml in Methanol
The initial purity of the HSS used to make Samples A through F was 98.9% as determined by the aforementioned GC procedure.

[2] = Photostabilization of avobenzone in ethanol test solution under sun simulator
Procedure: A comparative photostabilization study was conducted comparing the photostabilization efficacy of the compound of Example 1, HSS, and the compound of Example 3 (Compound 3) with Octocrylene and Oxynex® ST in the stabilization of avobenzone. Samples for evaluation were prepared as follows:
Solutions in ethanol are prepared at respective concentrations of photosensitive materials and photostabilizer (typically 1:1 to 1:5 weight ratio). A base test solution of 3% Avobenzone+5% Octyl salicylate +10% Homoslate in Ethanol (the “Test Solution”) was made. Seven additional solutions were prepared by adding 2% Synoxyl™ HSS, 4% Synoxyl™ HSS, 4% Compound 3, 2% Octocrylene, 4% Octocrylene, 2% Oxynex® ST, and 2% dehydrozingerone methyl ether, respectively, to seven aliquots of the Test Solution.
(§1) Samples of each solution were prepared as ultrathin films between two quartz plates so as to obtain a minimum of 90% light transmission over the entire spectrum range of non absorbing chromophores. For example, ingredients which absorb only in the UV range were tested in formulation to obtain a minimum of 90% light transmission over the visible range. Each sample was then irradiated under sun simulator (754 W/m^2, 2 MED/h, UV dose from 20 to 100 Joules/cm^2) for various durations and light absorption spectra recorded for each sample at given times. The maximal absorption band λmax of each solution was determined before and after irradiation. The amount of the photosensitive materials remaining in solution after irradiation was calculated as the ratio of their two maximal absorptions.

[3] = Photostability of sunscreen formulation under sun simulator; conditions: 2% stabilizer in sunscreen with 2% butyl methoxydibenzoylmethane
Procedure: as §1
Three samples of this were taken for photostability testing according to the method of Example 6 above. The first sample, the Control, was not modified whereas the two remaining samples were modified by incorporating therein 2% of the compound of Example 1, HSS, and 4% octocrylene, respectively. The three formulations were prepared by first preparing each of Phase A1 and A2 and then dispersing Phase A2 in Phase A1 with agitation and heating to 75 C. Phase B was prepared and heated to 75° C. Phase B is then combined with the Phase A mixture with continuous stirring. The combination was subsequently homogenized for 2-3 minutes, and the batch cooled to 45° C. Phases C and were separately prepared and then mixed with the cooled batch until uniform.
As with Example 6, each was exposed to irradiation for various durations and the photostability tested. As evidenced from the results shown in Table 7, the stabilizer compound of the present invention performed markedly better than that of the conventional photostabilizer in the formulated product.

[4] = Photostabilization of water-soluble dyes under solar simulated light; conditions: 0.05% stabilizer, FD&C Yellow No 5 or Red No 40, solar simulated light ~40 hours
Procedure: The stabilizer compound Synoxyl™ HSS according to Example 1 was added to the two dye compositions of Table 9, one containing Yellow No 5 and the other Red No 40, in order to evaluate its ability to reduce the extent of color fading resulting from their exposure to solar simulated light. In both formulations without the Synoxyl™ HSS, visible and marked color fading was noted following just 2 hours of light exposure.

SMILES: COc1cc(C=C(C(C)=O)C(C)=O)cc(OC)c1OC [HSS, 3-(3,4,5-trimethoxybenzylidene)-2,4-pentanedione]
- hydrolytic stability ([1]; pH 7, 8, and 9 at 40° C. and at 60° C. for at least 8 hrs): stable
- GC purity (Area %) ([1]; pH 7, 40° C., 4 h): 98.9 Area %
- GC purity (Area %) ([1]; pH 7, 40° C., 8 h): 99.1 Area %
- GC purity (Area %) ([1]; pH 7, 60° C., 4 h): 98.6 Area %
- GC purity (Area %) ([1]; pH 7, 60° C., 8 h): 99.0 Area %
- GC purity (Area %) ([1]; pH 7, RT (~27° C.), 4 h): 98.8 Area %
- GC purity (Area %) ([1]; pH 7, RT (~27° C.), 8 h): 99.0 Area %
- GC purity (Area %) ([1]; pH 8, 40° C., 4 h): 98.9 Area %
- GC purity (Area %) ([1]; pH 8, 40° C., 8 h): 99.1 Area %
- GC purity (Area %) ([1]; pH 8, 60° C., 4 h): 99.2 Area %
- GC purity (Area %) ([1]; pH 8, 60° C., 8 h): 99.0 Area %
- GC purity (Area %) ([1]; pH 8, RT (~27° C.), 4 h): 98.7 Area %
- GC purity (Area %) ([1]; pH 8, RT (~27° C.), 8 h): 99.2 Area %
- GC purity (Area %) ([1]; pH 9, 40° C., 4 h): 99.0 Area %
- GC purity (Area %) ([1]; pH 9, 40° C., 8 h): 98.9 Area %
- GC purity (Area %) ([1]; pH 9, 60° C., 4 h): 99.1 Area %
- GC purity (Area %) ([1]; pH 9, 60° C., 8 h): 98.8 Area %
- GC purity (Area %) ([1]; pH 9, RT (~27° C.), 4 h): 98.8 Area %
- GC purity (Area %) ([1]; pH 9, RT (~27° C.), 8 h): 98.8 Area %
- % remaining ([2]; 2% stabilizer in Test Solution (3% Avobenzone), UV dose 0 Joules/cm^2): 100%
- % remaining ([2]; 2% stabilizer in Test Solution (3% Avobenzone), UV dose 20 Joules/cm^2): 96%
- % remaining ([2]; 2% stabilizer in Test Solution (3% Avobenzone), UV dose 40 Joules/cm^2): 90%
- % remaining ([2]; 2% stabilizer in Test Solution (3% Avobenzone), UV dose 60 Joules/cm^2): 84%
- % remaining ([2]; 2% stabilizer in Test Solution (3% Avobenzone), UV dose 80 Joules/cm^2): 77%
- % remaining ([2]; 2% stabilizer in Test Solution (3% Avobenzone), UV dose 100 Joules/cm^2): 70%
- % remaining ([2]; 4% stabilizer in Test Solution (3% Avobenzone), UV dose 0 Joules/cm^2): 100%
- % remaining ([2]; 4% stabilizer in Test Solution (3% Avobenzone), UV dose 20 Joules/cm^2): 96%
- % remaining ([2]; 4% stabilizer in Test Solution (3% Avobenzone), UV dose 40 Joules/cm^2): 90%
- % remaining ([2]; 4% stabilizer in Test Solution (3% Avobenzone), UV dose 60 Joules/cm^2): 84%
- % remaining ([2]; 4% stabilizer in Test Solution (3% Avobenzone), UV dose 80 Joules/cm^2): 80%
- % remaining ([2]; 4% stabilizer in Test Solution (3% Avobenzone), UV dose 100 Joules/cm^2): 76%
- photostability of sunscreen formulation (% remaining) ([3]; UV dose 0 Joules/cm^2): 100%
- photostability of sunscreen formulation (% remaining) ([3]; UV dose 20 Joules/cm^2): 96%
- photostability of sunscreen formulation (% remaining) ([3]; UV dose 40 Joules/cm^2): 92%
- photostability of sunscreen formulation (% remaining) ([3]; UV dose 60 Joules/cm^2): 88%
- color fading of dye formulation [4]: failed to manifest color fading
